Molecular target: hDGAT2 (Homo sapiens (Human), UniProt Q96PD7)
Assay: DGAT2 Enzymatic Activity Assay
Format: biochemical
Conditions: hDGAT2 Sf-9 membrane prep; 25 μM diolein, 10 μM oleoyl-CoA; triolein product by LC/MS/MS; read-out: IC50 values for inhibition of DGAT2
Outline: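 Membranes from Sf-9 cells expressing untagged hDGAT2 (10 ng/μL) incubated at room temperature with 25 μM diolein and 10 μM oleoyl-CoA in 100 mM Tris pH 7.0, 20 mM MgCl2, 5% ethanol. Triolein product quantified by LC/MS/MS against spiked internal standard; IC50 from 4-parameter sigmoidal fit.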

Sequence of hDGAT2 (Q96PD7 whole entry): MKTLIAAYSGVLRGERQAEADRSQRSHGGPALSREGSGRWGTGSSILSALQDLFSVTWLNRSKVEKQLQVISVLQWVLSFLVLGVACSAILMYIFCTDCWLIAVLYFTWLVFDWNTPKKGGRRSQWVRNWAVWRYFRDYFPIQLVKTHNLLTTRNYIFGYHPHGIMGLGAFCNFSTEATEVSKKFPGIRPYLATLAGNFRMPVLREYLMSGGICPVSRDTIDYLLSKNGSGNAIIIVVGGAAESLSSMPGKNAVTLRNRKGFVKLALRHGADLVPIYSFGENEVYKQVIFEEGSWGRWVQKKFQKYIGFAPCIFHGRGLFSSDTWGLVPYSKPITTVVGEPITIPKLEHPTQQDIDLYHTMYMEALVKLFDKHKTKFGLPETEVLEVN

Question: For COC(=O)c1cccc(-c2ccc(CNC(=O)C3CC3c3ccccc3)c3c2CCN(C(=O)c2c[nH]nc2C2CC2)C3)c1 (centres unmarked) [Example 121, methyl 3-(2-(3-cyclopropyl-1H-pyrazole-4-carbonyl)-8-((2-phenylcyclopropanecarboxamido)methyl)-1,2,3,4-tetrahydroisoquinolin-5-yl)benzoate], which IC50 is on record?
Answer: 632 nM

Question: COC(=O)c1cccc(-c2ccc(CNC(=O)C3CC3c3ccccc3)c3c2CCN(C(=O)c2cnoc2C(C)C)C3)c1 (centres unmarked) [Example 122, methyl 3-(2-(5-isopropylisoxazole-4-carbonyl)-8-((2-phenylcyclopropanecarboxamido)methyl)-1,2,3,4-tetrahydroisoquinolin-5-yl)benzoate] was tested. Which IC50 did it give?
Answer: 5500 nM

Question: Which IC50 does the source give for COC(=O)c1cccc(-c2ccc(CNC(=O)C3CC3c3ccccc3)c3c2CCN(C(=O)C2(C(F)(F)F)CC2)C3)c1 (centres unmarked) [Example 123, methyl 3-(8-((2-phenylcyclopropanecarboxamido)methyl)-2-(1-(trifluoromethyl)cyclopropanecarbonyl)-1,2,3,4-tetrahydroisoquinolin-5-yl)benzoate] here?
Answer: 1320 nM

Question: How did the IC50 turn out when COC(=O)c1cccc(-c2ccc(CNC(=O)C3CC3c3ccccc3)c3c2CCN(C(=O)c2cccc(-n4cccc4)c2)C3)c1 (centres unmarked) [Example 124, methyl 3-(2-(3-(1H-pyrrol-1-yl)benzoyl)-8-((2-phenylcyclopropanecarboxamido)methyl)-1,2,3,4-tetrahydroisoquinolin-5-yl)benzoate] was run?
Answer: 5490 nM

Question: How did the IC50 turn out when COC(=O)c1cccc(-c2ccc(CNC(=O)C3CC3c3ccccc3)c3c2CCN(C(=O)CC2CC2)C3)c1 (centres unmarked) [Example 125, methyl 3-(2-(2-cyclopropylacetyl)-8-((2-phenylcyclopropanecarboxamido)methyl)-1,2,3,4-tetrahydroisoquinolin-5-yl)benzoate] was run?
Answer: 209 nM

Question: How did the IC50 turn out when COCCC(=O)N1CCc2c(-c3cccc(C(=O)OC)c3)ccc(CNC(=O)C3CC3c3ccccc3)c2C1 (centres unmarked) [Example 126, methyl 3-(2-(3-methoxypropanoyl)-8-((2-phenylcyclopropanecarboxamido)methyl)-1,2,3,4-tetrahydroisoquinolin-5-yl)benzoate] was run?
Answer: 1770 nM

Question: With COC(=O)c1cccc(-c2ccc(CNC(=O)C3CC3c3ccccc3)c3c2CCN(C(=O)CCC(F)(F)F)C3)c1 (centres unmarked) [Example 127, methyl 3-(8-((2-phenylcyclopropanecarboxamido)methyl)-2-(4,4,4-trifluorobutanoyl)-1,2,3,4-tetrahydroisoquinolin-5-yl)benzoate] as the compound, how does the IC50 read?
Answer: 1220 nM

Question: COC(=O)c1cccc(-c2ccc(CNC(=O)C3CC3c3ccccc3)c3c2CCN(C(=O)C2(C#N)CC2)C3)c1 (centres unmarked) [Example 128, methyl 3-(2-(1-cyanocyclopropanecarbonyl)-8-((2-phenylcyclopropanecarboxamido)methyl)-1,2,3,4-tetrahydroisoquinolin-5-yl)benzoate] was tested. Which IC50 did it give?
Answer: 1590 nM

Question: For COC(=O)c1cccc(-c2ccc(CNC(=O)C3CC3c3ccccc3)c3c2CCN(C(=O)CC(F)(F)F)C3)c1 (centres unmarked) [Example 129, methyl 3-(8-((2-phenylcyclopropanecarboxamido)methyl)-2-(3,3,3-trifluoropropanoyl)-1,2,3,4-tetrahydroisoquinolin-5-yl)benzoate], which IC50 is on record?
Answer: 1820 nM

Question: For COC(=O)c1cccc(-c2ccc(CNC(=O)C3CC3c3ccccc3)c3c2CCN(C(=O)C(C)C)C3)c1 (centres unmarked) [Example 130, methyl 3-(2-isobutyryl-8-((2-phenylcyclopropanecarboxamido)methyl)-1,2,3,4-tetrahydroisoquinolin-5-yl)benzoate], which IC50 is on record?
Answer: 281 nM

Question: How did the IC50 turn out when COC(=O)c1cccc(-c2ccc(CNC(=O)C3CC3c3ccccc3)c3c2CCN(C(=O)C2CC2C)C3)c1 (centres unmarked) [Example 131, methyl 3-(2-(2-methylcyclopropanecarbonyl)-8-((2-phenylcyclopropanecarboxamido)methyl)-1,2,3,4-tetrahydroisoquinolin-5-yl)benzoate] was run?
Answer: 360 nM

Question: Which IC50 does the source give for COC(=O)c1cccc(-c2ccc(CNC(=O)C3CC3c3ccccc3)c3c2CCN(C(=O)C2(C)CC2)C3)c1 (centres unmarked) [Example 132, methyl 3-(2-(1-methylcyclopropanecarbonyl)-8-((2-phenylcyclopropanecarboxamido)methyl)-1,2,3,4-tetrahydroisoquinolin-5-yl)benzoate] here?
Answer: 522 nM

Question: With COC(=O)c1cccc(-c2ccc(CNC(=O)C3CC3c3ccccc3)c3c2CCN(C(=O)c2ccncc2)C3)c1 (centres unmarked) [Example 133, methyl 3-(2-isonicotinoyl-8-((2-phenylcyclopropanecarboxamido)methyl)-1,2,3,4-tetrahydroisoquinolin-5-yl)benzoate] as the compound, how does the IC50 read?
Answer: 2510 nM

Question: With COC(=O)c1cccc(-c2ccc(CNC(=O)C3CC3c3ccccc3)c3c2CCN(C(=O)c2cccnc2)C3)c1 (centres unmarked) [Example 134, methyl 3-(2-nicotinoyl-8-((2-phenylcyclopropanecarboxamido)methyl)-1,2,3,4-tetrahydroisoquinolin-5-yl)benzoate] as the compound, how does the IC50 read?
Answer: 3560 nM

Question: How did the IC50 turn out when CCOCC(=O)N1CCc2c(-c3cccc(C(=O)OC)c3)ccc(CNC(=O)C3CC3c3ccccc3)c2C1 (centres unmarked) [Example 136, methyl 3-(2-(2-ethoxyacetyl)-8-((2-phenylcyclopropanecarboxamido)methyl)-1,2,3,4-tetrahydroisoquinolin-5-yl)benzoate] was run?
Answer: 2170 nM

Question: Which IC50 does the source give for COC(=O)c1cccc(-c2ccc(CNC(=O)C3CC3c3ccccc3)c3c2CCN(C(=O)C2CCC(C)CC2)C3)c1 (centres unmarked) [Example 137, methyl 3-(2-(4-methylcyclohexanecarbonyl)-8-((2-phenylcyclopropanecarboxamido)methyl)-1,2,3,4-tetrahydroisoquinolin-5-yl)benzoate] here?
Answer: 3340 nM

Question: For COC(=O)c1cccc(-c2ccc(CNC(=O)C3CC3c3ccccc3)c3c2CCN(C(=O)c2ccccc2)C3)c1 (centres unmarked) [Example 138, methyl 3-(2-benzoyl-8-((2-phenylcyclopropanecarboxamido)methyl)-1,2,3,4-tetrahydroisoquinolin-5-yl)benzoate], which IC50 is on record?
Answer: 176 nM

Question: Which IC50 does the source give for COC(=O)c1cccc(-c2ccc(CNC(=O)C3CC3c3ccccc3)c3c2CCN(C(=O)c2ccccc2F)C3)c1 (centres unmarked) [Example 139, methyl 3-(2-(2-fluorobenzoyl)-8-((2-phenylcyclopropanecarboxamido)methyl)-1,2,3,4-tetrahydroisoquinolin-5-yl)benzoate] here?
Answer: 219 nM

Question: Which IC50 does the source give for COC(=O)c1cccc(-c2ccc(CNC(=O)C3CC3c3ccccc3)c3c2CCN(C(=O)c2cccc(F)c2)C3)c1 (centres unmarked) [Example 140, methyl 3-(2-(3-fluorobenzoyl)-8-((2-phenylcyclopropanecarboxamido)methyl)-1,2,3,4-tetrahydroisoquinolin-5-yl)benzoate] here?
Answer: 1530 nM

Question: How did the IC50 turn out when COC(=O)c1cccc(-c2ccc(CNC(=O)C3CC3c3ccccc3)c3c2CCN(C(=O)c2ccc(F)cc2)C3)c1 (centres unmarked) [Example 141, methyl 3-(2-(4-fluorobenzoyl)-8-((2-phenylcyclopropanecarboxamido)methyl)-1,2,3,4-tetrahydroisoquinolin-5-yl)benzoate] was run?
Answer: 279 nM

Reference: patent publication US10568876B2, “Tetrahydroisoquinoline derivatives useful as inhibitors of diacylglyceride O-acyltransferase 2” (Merck Sharp & Dohme Corp., priority 2014, dated 2020)
